# From ChEMBL document CHEMBL5537170, “Design, Synthesis, and Anti-Osteoporotic Characterization of Arginine N-Glycosylated Teriparatide Analogs via the Silver-catalyzed Solid-Phase Glycosylation Strategy” (J Med Chem, 2024)
# The source made the active and inactive calls. The calls are words filed in the database; no cut-off is given here. *1 amine or outer side, *2 acyl side, *3 side chain or, on linkers, in order; H or OH if unused. Where a SMILES comes first, the peptide text is derived from it. [ ]: non-standard residue; d: D form. X6 = C[C@@H]1O[C@@H](NC(=N)NCCC[C@H](N[*:1])C(=O)[*:2])[C@H](O)[C@H](O)[C@H]1O
# Tests used:
# [1] = Induction of osteoblast differentiation in C57BL/6 mouse Pre-Osteoblast cells assessed as fold increase in ephrinB2 protein expression at 200 nM measured after 72 hrs by Western blot analysis relative to control; assay type: functional
# Mus musculus [2] = test: Anti-osteoporosis activity in ovariectomized C57BL/6J mouse model assessed as increase in bone surface density in femur at 20 microg/kg, sc administered 3 times a week for 8 weeks by micro-CT analysis; assay type: functional, organism-based; settings: dose 20.0 µg/kg
# [3] = Induction of osteoblast differentiation in C57BL/6 mouse Pre-Osteoblast cells assessed as fold increase in ephrinB2 protein expression at 50 nM measured after 72 hrs by Western blot analysis relative to control; assay type: functional
# [4] = Stability in human serum assessed as compound remaining at 1 mg/ml measured after 12 hrs by HPLC analysis; assay type: ADME, cell-free; settings: read-out: Stability
# [5] = Induction of osteoblast differentiation in C57BL/6 mouse Pre-Osteoblast cells assessed as fold increase in ephrinB2 protein expression at 100 nM measured after 72 hrs by Western blot analysis relative to control; assay type: functional
# Pre-Osteoblast [6] = test: Induction of osteoblast differentiation in C57BL/6 mouse Pre-Osteoblast cells assessed as increase in bone mineralization by measuring increase in red calcium nodules measured after 14 days by Alizarin Red S staining based analysis; assay type: functional, cell-based; settings: time 14.0 day
# Pre-Osteoblast [7] = test: Induction of osteoblast differentiation in C57BL/6 mouse Pre-Osteoblast cells assessed as increase in ALP expression by measuring increase in ALP-positive cells with purple color at 50 nM measured after 2 days by ALP staining based analysis; assay type: functional, cell-based; settings: time 2.0 day
# [8] = Cytotoxicity against C57BL/6 mouse Pre-Osteoblast cells assessed as cell death upto 5 uM incubated for 4 days by CCK-8 assay; assay type: toxicity, cell-based; settings: 96 h, time 4 day
# Mus musculus [9] = test: Anti-osteoporosis activity in ovariectomized C57BL/6J mouse model assessed as increase in bone volume percent in femur at 20 microg/kg, sc administered 3 times a week for 8 weeks by micro-CT analysis; assay type: functional, organism-based; settings: dose 20.0 µg/kg
# Pre-Osteoblast [10] = test: Induction of osteoblast differentiation in C57BL/6 mouse Pre-Osteoblast cells assessed as increase in bone mineralization by measuring increase in area of calcium nodules measured after 14 days by Alizarin Red S staining based analysis; assay type: functional, cell-based; settings: time 14.0 day
# Mus musculus [11] = test: Anti-osteoporosis activity in ovariectomized C57BL/6J mouse model assessed as increase in trabecular number in femur at 20 microg/kg, sc administered 3 times a week for 8 weeks by micro-CT analysis; assay type: functional, organism-based; settings: dose 20.0 µg/kg
structure (smiles),measurement,setting,value
CC[C@H](C)[C@H](NC(=O)[C@H](CCC(=O)O)NC(=O)[C@H](CO)NC(=O)[C@@H](NC(=O)[C@H](CO)NC(C)=O)C(C)C)C(=O)N[C@@H](CCC(N)=O)C(=O)N[C@@H](CC(C)C)C(=O)N[C@@H](CCSC)C(=O)N[C@@H](Cc1cnc[nH]1)C(=O)N[C@@H](CC(N)=O)C(=O)N[C@@H](CC(C)C)C(=O)NCC(=O)N[C@@H](CCCCN)C(=O)N[C@@H](Cc1cnc[nH]1)C(=O)N[C@@H](CC(C)C)C(=O)N[C@@H](CC(N)=O)C(=O)N[C@@H](CO)C(=O)N[C@@H](CCSC)C(=O)N[C@@H](CCC(=O)O)C(=O)N[C@@H](CCCNC(=N)N[C@@H]1OC[C@@H](O)[C@H](O)[C@H]1O)C(=O)N[C@H](C(=O)N[C@@H](CCC(=O)O)C(=O)N[C@@H](Cc1c[nH]c2ccccc12)C(=O)N[C@@H](CC(C)C)C(=O)N[C@@H](CCCNC(=N)N)C(=O)N[C@@H](CCCCN)C(=O)N[C@@H](CCCCN)C(=O)N[C@@H](CC(C)C)C(=O)N[C@@H](CCC(N)=O)C(=O)N[C@@H](CC(=O)O)C(=O)N[C@H](C(=O)N[C@@H](Cc1cnc[nH]1)C(=O)N[C@@H](CC(N)=O)C(=O)N[C@@H](Cc1ccccc1)C(N)=O)C(C)C)C(C)C,fold change (FC),[1],1.29
same,Activity,Mus musculus [2],Active
same,fold change (FC),[3],1.04
same,"remaining at 12 h, 1 mg/ml",[4],> 75%
same,fold change (FC),[5],1.28
same,Activity,Pre-Osteoblast [6],Active
same,Activity,Pre-Osteoblast [7],Active
same,Activity,[8],Non-Toxic
same,Activity,Mus musculus [9],Active
same,Activity,Pre-Osteoblast [10],Active
same,Activity,Mus musculus [11],Active
CC[C@H](C)[C@H](NC(=O)[C@H](CCC(=O)O)NC(=O)[C@H](CO)NC(=O)[C@@H](NC(=O)[C@H](CO)NC(C)=O)C(C)C)C(=O)N[C@@H](CCC(N)=O)C(=O)N[C@@H](CC(C)C)C(=O)N[C@@H](CCSC)C(=O)N[C@@H](Cc1cnc[nH]1)C(=O)N[C@@H](CC(N)=O)C(=O)N[C@@H](CC(C)C)C(=O)NCC(=O)N[C@@H](CCCCN)C(=O)N[C@@H](Cc1cnc[nH]1)C(=O)N[C@@H](CC(C)C)C(=O)N[C@@H](CC(N)=O)C(=O)N[C@@H](CO)C(=O)N[C@@H](CCSC)C(=O)N[C@@H](CCC(=O)O)C(=O)N[C@@H](CCCNC(=N)N[C@@H]1O[C@@H](C)[C@H](O)[C@@H](O)[C@H]1O)C(=O)N[C@H](C(=O)N[C@@H](CCC(=O)O)C(=O)N[C@@H](Cc1c[nH]c2ccccc12)C(=O)N[C@@H](CC(C)C)C(=O)N[C@@H](CCCNC(=N)N)C(=O)N[C@@H](CCCCN)C(=O)N[C@@H](CCCCN)C(=O)N[C@@H](CC(C)C)C(=O)N[C@@H](CCC(N)=O)C(=O)N[C@@H](CC(=O)O)C(=O)N[C@H](C(=O)N[C@@H](Cc1cnc[nH]1)C(=O)N[C@@H](CC(N)=O)C(=O)N[C@@H](Cc1ccccc1)C(N)=O)C(C)C)C(C)C,Activity,[8],Non-Toxic
CC[C@H](C)[C@H](NC(=O)[C@H](CCC(=O)O)NC(=O)[C@H](CO)NC(=O)[C@@H](NC(=O)[C@H](CO)NC(C)=O)C(C)C)C(=O)N[C@@H](CCC(N)=O)C(=O)N[C@@H](CC(C)C)C(=O)N[C@@H](CCSC)C(=O)N[C@@H](Cc1cnc[nH]1)C(=O)N[C@@H](CC(N)=O)C(=O)N[C@@H](CC(C)C)C(=O)NCC(=O)N[C@@H](CCCCN)C(=O)N[C@@H](Cc1cnc[nH]1)C(=O)N[C@@H](CC(C)C)C(=O)N[C@@H](CC(N)=O)C(=O)N[C@@H](CO)C(=O)N[C@@H](CCSC)C(=O)N[C@@H](CCC(=O)O)C(=O)N[C@@H](CCCNC(=N)N[C@H]1O[C@H](CO)[C@@H](O)[C@H](O)[C@H]1O)C(=O)N[C@H](C(=O)N[C@@H](CCC(=O)O)C(=O)N[C@@H](Cc1c[nH]c2ccccc12)C(=O)N[C@@H](CC(C)C)C(=O)N[C@@H](CCCNC(=N)N)C(=O)N[C@@H](CCCCN)C(=O)N[C@@H](CCCCN)C(=O)N[C@@H](CC(C)C)C(=O)N[C@@H](CCC(N)=O)C(=O)N[C@@H](CC(=O)O)C(=O)N[C@H](C(=O)N[C@@H](Cc1cnc[nH]1)C(=O)N[C@@H](CC(N)=O)C(=O)N[C@@H](Cc1ccccc1)C(N)=O)C(C)C)C(C)C,Activity,[8],Non-Toxic
CC[C@H](C)[C@H](NC(=O)[C@H](CCC(=O)O)NC(=O)[C@H](CO)NC(=O)[C@@H](NC(=O)[C@H](CO)NC(C)=O)C(C)C)C(=O)N[C@@H](CCC(N)=O)C(=O)N[C@@H](CC(C)C)C(=O)N[C@@H](CCSC)C(=O)N[C@@H](Cc1cnc[nH]1)C(=O)N[C@@H](CC(N)=O)C(=O)N[C@@H](CC(C)C)C(=O)NCC(=O)N[C@@H](CCCCN)C(=O)N[C@@H](Cc1cnc[nH]1)C(=O)N[C@@H](CC(C)C)C(=O)N[C@@H](CC(N)=O)C(=O)N[C@@H](CO)C(=O)N[C@@H](CCSC)C(=O)N[C@@H](CCC(=O)O)C(=O)N[C@@H](CCCNC(=N)N)C(=O)N[C@H](C(=O)N[C@@H](CCC(=O)O)C(=O)N[C@@H](Cc1c[nH]c2ccccc12)C(=O)N[C@@H](CC(C)C)C(=O)N[C@@H](CCCNC(=N)N[C@@H]1OC[C@@H](O)[C@H](O)[C@H]1O)C(=O)N[C@@H](CCCCN)C(=O)N[C@@H](CCCCN)C(=O)N[C@@H](CC(C)C)C(=O)N[C@@H](CCC(N)=O)C(=O)N[C@@H](CC(=O)O)C(=O)N[C@H](C(=O)N[C@@H](Cc1cnc[nH]1)C(=O)N[C@@H](CC(N)=O)C(=O)N[C@@H](Cc1ccccc1)C(N)=O)C(C)C)C(C)C,Activity,[8],Non-Toxic
CC[C@H](C)[C@H](NC(=O)[C@H](CCC(=O)O)NC(=O)[C@H](CO)NC(=O)[C@@H](NC(=O)[C@H](CO)NC(C)=O)C(C)C)C(=O)N[C@@H](CCC(N)=O)C(=O)N[C@@H](CC(C)C)C(=O)N[C@@H](CCSC)C(=O)N[C@@H](Cc1cnc[nH]1)C(=O)N[C@@H](CC(N)=O)C(=O)N[C@@H](CC(C)C)C(=O)NCC(=O)N[C@@H](CCCCN)C(=O)N[C@@H](Cc1cnc[nH]1)C(=O)N[C@@H](CC(C)C)C(=O)N[C@@H](CC(N)=O)C(=O)N[C@@H](CO)C(=O)N[C@@H](CCSC)C(=O)N[C@@H](CCC(=O)O)C(=O)N[C@@H](CCCNC(=N)N[C@@H]1O[C@H](CO)[C@@H](O[C@H]2O[C@H](CO)[C@@H](O)[C@H](O)[C@H]2O)[C@H](O)[C@H]1O)C(=O)N[C@H](C(=O)N[C@@H](CCC(=O)O)C(=O)N[C@@H](Cc1c[nH]c2ccccc12)C(=O)N[C@@H](CC(C)C)C(=O)N[C@@H](CCCNC(=N)N)C(=O)N[C@@H](CCCCN)C(=O)N[C@@H](CCCCN)C(=O)N[C@@H](CC(C)C)C(=O)N[C@@H](CCC(N)=O)C(=O)N[C@@H](CC(=O)O)C(=O)N[C@H](C(=O)N[C@@H](Cc1cnc[nH]1)C(=O)N[C@@H](CC(N)=O)C(=O)N[C@@H](Cc1ccccc1)C(N)=O)C(C)C)C(C)C,Activity,[8],Non-Toxic
CC[C@H](C)[C@H](NC(=O)[C@H](CCC(=O)O)NC(=O)[C@H](CO)NC(=O)[C@@H](NC(=O)[C@H](CO)NC(C)=O)C(C)C)C(=O)N[C@@H](CCC(N)=O)C(=O)N[C@@H](CC(C)C)C(=O)N[C@@H](CCSC)C(=O)N[C@@H](Cc1cnc[nH]1)C(=O)N[C@@H](CC(N)=O)C(=O)N[C@@H](CC(C)C)C(=O)NCC(=O)N[C@@H](CCCCN)C(=O)N[C@@H](Cc1cnc[nH]1)C(=O)N[C@@H](CC(C)C)C(=O)N[C@@H](CC(N)=O)C(=O)N[C@@H](CO)C(=O)N[C@@H](CCSC)C(=O)N[C@@H](CCC(=O)O)C(=O)N[C@@H](CCCNC(=N)N[C@@H]1O[C@@H](C)[C@H](O)[C@@H](O)[C@H]1O)C(=O)N[C@H](C(=O)N[C@@H](CCC(=O)O)C(=O)N[C@@H](Cc1c[nH]c2ccccc12)C(=O)N[C@@H](CC(C)C)C(=O)N[C@@H](CCCNC(=N)N[C@@H]1O[C@@H](C)[C@H](O)[C@@H](O)[C@H]1O)C(=O)N[C@@H](CCCCN)C(=O)N[C@@H](CCCCN)C(=O)N[C@@H](CC(C)C)C(=O)N[C@@H](CCC(N)=O)C(=O)N[C@@H](CC(=O)O)C(=O)N[C@H](C(=O)N[C@@H](Cc1cnc[nH]1)C(=O)N[C@@H](CC(N)=O)C(=O)N[C@@H](Cc1ccccc1)C(N)=O)C(C)C)C(C)C (Ac-SVSEIQLMHNLGKHLNSME[X6]VEWL[X6]KKLQDVHNF-NH2),Activity,[8],Non-Toxic
CC[C@H](C)[C@H](NC(=O)[C@H](CCC(=O)O)NC(=O)[C@H](CO)NC(=O)[C@@H](NC(=O)[C@H](CO)NC(C)=O)C(C)C)C(=O)N[C@@H](CCC(N)=O)C(=O)N[C@@H](CC(C)C)C(=O)N[C@@H](CCSC)C(=O)N[C@@H](Cc1cnc[nH]1)C(=O)N[C@@H](CC(N)=O)C(=O)N[C@@H](CC(C)C)C(=O)NCC(=O)N[C@@H](CCCCN)C(=O)N[C@@H](Cc1cnc[nH]1)C(=O)N[C@@H](CC(C)C)C(=O)N[C@@H](CC(N)=O)C(=O)N[C@@H](CO)C(=O)N[C@@H](CCSC)C(=O)N[C@@H](CCC(=O)O)C(=O)N[C@@H](CCCNC(=N)N)C(=O)N[C@H](C(=O)N[C@@H](CCC(=O)O)C(=O)N[C@@H](Cc1c[nH]c2ccccc12)C(=O)N[C@@H](CC(C)C)C(=O)N[C@@H](CCCNC(=N)N[C@@H]1O[C@H](CO)[C@@H](O[C@@H]2O[C@H](CO)[C@H](O)[C@H](O)[C@H]2O)[C@H](O)[C@H]1O)C(=O)N[C@@H](CCCCN)C(=O)N[C@@H](CCCCN)C(=O)N[C@@H](CC(C)C)C(=O)N[C@@H](CCC(N)=O)C(=O)N[C@@H](CC(=O)O)C(=O)N[C@H](C(=O)N[C@@H](Cc1cnc[nH]1)C(=O)N[C@@H](CC(N)=O)C(=O)N[C@@H](Cc1ccccc1)C(N)=O)C(C)C)C(C)C,Activity,[8],Non-Toxic
